Tests used:
[1] = Pharmacokinetic experiment in rats; type: in vivo; details: rat, plasma; SD rats, male, intravenous, 0.2 mg/kg, sampling to 72 hours
Experimental: Dulbecco's phosphate buffered saline (DPBS) (Batch No.: F2326001, Shanghai Aladdin Biochemical Technology Co., Ltd.). LC-MS instrument (Thermo TSQ Altis Plus).
SD rats: Male, 180-250g, purchased from Guangdong Vital River Laboratory Animal Technology Co., Ltd.
The test sample powder was accurately weighed and completely dissolved in Dulbecco's phosphate buffered saline free of Ca^2+/Mg^2+, mixed well to obtain a 0.1 mg/mL solution, and administered intravenously at a dose of 2 mL/kg.
After intravenous administration to the rats, approximately 200 µL of venous blood was collected into EDTA-K2 anticoagulant-coated EP tubes pre-dose and post-dose at 0, 0.5, 2, 5, 24, 48, and 72 hours . The blood was centrifuged at 12,000 rpm for 2 minutes. The plasma was collected and stored frozen at -20°C until analysis.
A certain amount of the test sample was accurately weighed and dissolved in DMSO to prepare a 2 mg/mL stock solution. An appropriate amount of the compound stock solution was accurately pipetted and diluted with an acetonitrile-aqueous solution (ACN:H2O=1:1) to prepare a series of standard solutions. […]
After determining the plasma drug concentration by LC-MS, the pharmacokinetic parameters in rats post-administration were calculated using a non-compartmental model with WinNonlin 6.1 software.

GLP-1 receptor = molecular target: T1, GLP-1 receptor (Homo sapiens, UniProt P43220); assay: GLP-1 activity assay (cAMP HTRF); type: cell-based; details: U20S-GLP-1R stable transfected cell line, 30 minutes at 37°C
T1 construct: expressed in transfected cells
T1 sequence (P43220 24-463, species assumed): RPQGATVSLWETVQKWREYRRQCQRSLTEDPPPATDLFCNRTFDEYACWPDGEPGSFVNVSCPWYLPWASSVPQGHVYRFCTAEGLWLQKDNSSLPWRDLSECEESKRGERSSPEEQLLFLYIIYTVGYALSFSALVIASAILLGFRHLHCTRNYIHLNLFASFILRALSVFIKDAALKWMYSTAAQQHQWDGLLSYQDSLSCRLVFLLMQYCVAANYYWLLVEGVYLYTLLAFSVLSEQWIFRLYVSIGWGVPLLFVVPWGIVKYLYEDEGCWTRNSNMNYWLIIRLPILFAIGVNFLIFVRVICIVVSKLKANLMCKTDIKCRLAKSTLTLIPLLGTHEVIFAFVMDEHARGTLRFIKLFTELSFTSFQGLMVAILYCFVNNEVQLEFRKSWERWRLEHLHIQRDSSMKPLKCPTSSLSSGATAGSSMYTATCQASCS
Experimental: The agonistic effect of the test substance on the GLP-1 receptor was determined using a U20S-GLP-1R stable transfected cell line and a HTRF detection method.
• 1. According to the experimental procedure of the cAMP-Gs Dynamic HTRF kit, the 5x Stimulation buffer (SB) provided in the kit was diluted to 1xSB with ddH2O. IBMX was added to the 1xSB solution to a final concentration of 500 µM to prevent degradation of cAMP. Then, a working solution of the test substance was prepared using 1xSB and subjected to a series of gradient dilutions. • 2. U2OS-GLP-1R cells were digested and collected. After resuspending and counting, the cell density was diluted to 2x10^6 cells/mL using 1xSB solution. Then, 5 µL per well was seeded into a 384-well cell culture plate, resulting in 10,000 cells per well. • 3. The test substances were added at different concentrations into the corresponding cell wells at 5 µL per well, and incubated in a 37°C incubator for 30 minutes. • 4. According to the steps provided by the cAMP-Gs Dynamic HTRF kit, cAMP standard solutions of different concentrations were prepared and added into the 384-well plate. • 5. The cAMP d2 reagent and Eu Cryptate antibody provided in the kit were diluted to 1x using Lysis & Detection Buffer. Then, d2 and Eu solutions were added to the 384-well plate, 5 µL each well. After incubation at room temperature for 2 hours, the plate was read using the HTRF module (665/620 nm) of a microplate reader, and experimental data was collected. • 6. A curve was plotted using the signal value versus the compound concentration. Curve fitting and EC50 calculation were performed using nonlinear regression of GraphPad Prism software. […] Table 2: GLP-1 Activity of the compounds

Row | Structure (SMILES) | AUC(0-t) [1] | EC50 (GLP-1 receptor)
1 | CC[C@H](C)[C@H](NC(=O)[C@H](Cc1ccccc1)NC(=O)[C@H](CCC(=O)O)NC(=O)[C@H](CCCCNC(=O)COCCOCCNC(=O)COCCOCCNC(=O)CC[C@H](NC(=O)CCCCCCCCCCCCCCCCC(=O)O)C(=O)O)NC(=O)[C@H](C)NC(=O)[C@H](C)NC(=O)[C@H](CCC(N)=O)NC(=O)CNC(=O)[C@H](CCC(=O)O)NC(=O)[C@H](CC(C)C)NC(=O)[C@H](Cc1ccc(O)cc1)NC(=O)[C@H](CO)NC(=O)[C@H](CO)NC(=O)[C@@H](NC(=O)[C@H](CC(=O)O)NC(=O)[C@H](CO)NC(=O)[C@@H](NC(=O)[C@H](Cc1ccccc1)NC(=O)[C@@H](NC(=O)CNC(=O)[C@H](CCC(=O)O)NC(=O)C(C)(C)NC(=O)[C@H](Cc1c[nH]cn1)NC(=O)CN(CCNC(=O)C[C@H](NC(=O)CCCCCCCCCCCCCCC(=O)O)C(=O)O)C(=O)CN)[C@@H](C)O)[C@@H](C)O)C(C)C)C(=O)N[C@@H](C)C(=O)N[C@@H](Cc1c[nH]c2ccccc12)C(=O)N[C@@H](CC(C)C)C(=O)N[C@H](C(=O)N[C@@H](CCCNC(=N)N)C(=O)NCC(=O)N[C@@H](CCCNC(=N)N)C(=O)NCC(=O)O)C(C)C [Example 2] | 101 µg·h/mL | 9.3 nM
2 | CC[C@H](C)[C@H](NC(=O)[C@H](Cc1ccccc1)NC(=O)[C@H](CCC(=O)O)NC(=O)[C@H](CCCCNC(=O)COCCOCCNC(=O)COCCOCCNC(=O)CC[C@H](NC(=O)CCCCCCCCCCCCCCCCC(=O)O)C(=O)O)NC(=O)[C@H](C)NC(=O)[C@H](C)NC(=O)[C@H](CCC(N)=O)NC(=O)CNC(=O)[C@H](CCC(=O)O)NC(=O)[C@H](CC(C)C)NC(=O)[C@H](Cc1ccc(O)cc1)NC(=O)[C@H](CO)NC(=O)[C@H](CO)NC(=O)[C@@H](NC(=O)[C@H](CC(=O)O)NC(=O)[C@H](CO)NC(=O)[C@@H](NC(=O)[C@H](Cc1ccccc1)NC(=O)[C@@H](NC(=O)CNC(=O)[C@H](CCC(=O)O)NC(=O)C(C)(C)NC(=O)[C@H](Cc1c[nH]cn1)NC(=O)CN(CCOCCOCCNC(=O)CC[C@H](NC(=O)CCCCCCCCCCCCCCC(=O)O)C(=O)O)C(=O)CN)[C@@H](C)O)[C@@H](C)O)C(C)C)C(=O)N[C@@H](C)C(=O)N[C@@H](Cc1c[nH]c2ccccc12)C(=O)N[C@@H](CC(C)C)C(=O)N[C@H](C(=O)N[C@@H](CCCNC(=N)N)C(=O)NCC(=O)N[C@@H](CCCNC(=N)N)C(=O)NCC(=O)O)C(C)C [Example 3] |  | 15.7 nM
3 | CC[C@H](C)[C@H](NC(=O)[C@H](Cc1ccccc1)NC(=O)[C@H](CCC(=O)O)NC(=O)[C@H](CCCCNC(=O)COCCOCCNC(=O)COCCOCCNC(=O)CC[C@H](NC(=O)CCCCCCCCCCCCCCCCC(=O)O)C(=O)O)NC(=O)[C@H](C)NC(=O)[C@H](C)NC(=O)[C@H](CCC(N)=O)NC(=O)CNC(=O)[C@H](CCC(=O)O)NC(=O)[C@H](CC(C)C)NC(=O)[C@H](Cc1ccc(O)cc1)NC(=O)[C@H](CO)NC(=O)[C@H](CO)NC(=O)[C@@H](NC(=O)[C@H](CC(=O)O)NC(=O)[C@H](CO)NC(=O)[C@@H](NC(=O)[C@H](Cc1ccccc1)NC(=O)[C@@H](NC(=O)CNC(=O)[C@H](CCC(=O)O)NC(=O)C(C)(C)NC(=O)[C@H](Cc1c[nH]cn1)NC(=O)CN(CCOCCOCCNC(=O)C[C@H](NC(=O)CCCCCCCCCCCCCCC(=O)O)C(=O)O)C(=O)CN)[C@@H](C)O)[C@@H](C)O)C(C)C)C(=O)N[C@@H](C)C(=O)N[C@@H](Cc1c[nH]c2ccccc12)C(=O)N[C@@H](CC(C)C)C(=O)N[C@H](C(=O)N[C@@H](CCCNC(=N)N)C(=O)NCC(=O)N[C@@H](CCCNC(=N)N)C(=O)NCC(=O)O)C(C)C [Example 4] |  | 16.9 nM
4 | CC[C@H](C)[C@H](NC(=O)[C@H](Cc1ccccc1)NC(=O)[C@H](CCC(=O)O)NC(=O)[C@H](CCCCNC(=O)COCCOCCNC(=O)COCCOCCNC(=O)CC[C@H](NC(=O)CCCCCCCCCCCCCCCCC(=O)O)C(=O)O)NC(=O)[C@H](C)NC(=O)[C@H](C)NC(=O)[C@H](CCC(N)=O)NC(=O)CNC(=O)[C@H](CCC(=O)O)NC(=O)[C@H](CC(C)C)NC(=O)[C@H](Cc1ccc(O)cc1)NC(=O)[C@H](CO)NC(=O)[C@H](CO)NC(=O)[C@@H](NC(=O)[C@H](CC(=O)O)NC(=O)[C@H](CO)NC(=O)[C@@H](NC(=O)[C@H](Cc1ccccc1)NC(=O)[C@@H](NC(=O)CNC(=O)[C@H](CCC(=O)O)NC(=O)C(C)(C)NC(=O)[C@H](Cc1c[nH]cn1)NC(=O)CN(CCNC(=O)CC[C@H](NC(=O)CCCCCCCCCCCCCCC(=O)O)C(=O)O)C(=O)[C@@H]1CCCN1)[C@@H](C)O)[C@@H](C)O)C(C)C)C(=O)N[C@@H](C)C(=O)N[C@@H](Cc1c[nH]c2ccccc12)C(=O)N[C@@H](CC(C)C)C(=O)N[C@H](C(=O)N[C@@H](CCCNC(=N)N)C(=O)NCC(=O)N[C@@H](CCCNC(=N)N)C(=O)NCC(=O)O)C(C)C [Example 17] | 99.3 µg·h/mL | 5.7 nM
